From patent publication US20240148821A1, “PHARMACEUTICAL USE OF CYCLIC PEPTIDE COMPOUND” (CHUGAI SEIYAKU KABUSHIKI KAISHA, priority 2021, published 2024)
pIC50: −log10 of the molar value. Bridge positions count the residues as written; N and C are the ends. Square brackets hold non-standard residues; d marks the D form. Peptide text beside a SMILES is read from it. * marks the point of attachment. hPhe(3-Cl-4-CF3) = N[C@@H](CCc1ccc(C(F)(F)F)c(Cl)c1)C(=O)O; hPhe(3-F,4-CF3) = N[C@@H](CCc1ccc(C(F)(F)F)c(F)c1)C(=O)O; NMePhe(4-CF3) = CN[C@@H](Cc1ccc(C(F)(F)F)cc1)C(=O)O; NMePhe(3-CN) = CN[C@@H](Cc1cccc(C#N)c1)C(=O)O; NMeAbu(4,4,4-F3) = CN[C@@H](CC(F)(F)F)C(=O)O; NMePhe(3-Me) = CN[C@@H](Cc1cccc(C)c1)C(=O)O; Oic = O=C(O)[C@@H]1C[C@@H]2CCCC[C@@H]2N1; NMeGly(cPent) = CN[C@H](C(=O)O)C1CCCC1; Phe(3-I) = N[C@@H](Cc1cccc(I)c1)C(=O)O; Pro(4,4-F2) = O=C(O)[C@@H]1CC(F)(F)CN1; NMe4Pal = CN[C@@H](Cc1ccncc1)C(=O)O; NMeGly(cBu) = CN[C@H](C(=O)O)C1CCC1; NMeCha = CN[C@@H](CC1CCCCC1)C(=O)O; Hyp = O=C(O)[C@@H]1C[C@@H](O)CN1; NMeChg = CN[C@H](C(=O)O)C1CCCCC1; NMeD = CN[C@@H](CC(=O)O)C(=O)O; NMeL = CN[C@@H](CC(C)C)C(=O)O; NMeV = CN[C@H](C(=O)O)C(C)C; d(β3hA) = C[C@@H](N)CC(=O)O; NMeS = CN[C@@H](CO)C(=O)O; Morpholide = C1CN(*)CCO1; NMeA = CN[C@@H](C)C(=O)O; NMeAib = CNC(C)(C)C(=O)O; Piperidide = C1CCN(*)CC1; Pra = C#CC[C@H](N)C(=O)O; Pyrrolidide = C1CCN(*)C1; Ac5c = NC1(C(=O)O)CCCC1; Aze = O=C(O)[C@@H]1CCN1; NPrGly = CCCNCC(=O)O; Sar = CNCC(=O)O; Propyl = CCC*

Tested on: Human pancreatic cancer cell line AsPC-1 (G12D mutation Kras)
Assay: AsPC-1 cell growth inhibition (AsPC-1 CGI)
Assay type: cell-based
Conditions: read-out: AsPC-1 cell growth inhibition, 50% growth inhibitory concentration (IC50 value); 96 hours, CellTiter-Glo, values classified in ranges
Procedure: Test compounds were serially dilated with dimethyl sulfoxide, and 200 nL was then dispensed to a U-bottom 96-well plate using Labcyte Echo. […] The cell suspension was dispensed to a. plate containing a test compound at 100 μL per well and incubated at 37° C. in a 5% carbon dioxide gas incubator. 96 hours later, 80 μL of CellTiter-Glo (Promega) was added to each well and fluorescence was measured.

Question: How did the pIC50 turn out when CC[C@H](C)[C@@H]1NC(=O)[C@H](CC(C)C)N(C)C(=O)C[C@@H](C(=O)N2CCCCC2)N(C)C(=O)[C@H](C2CCCCC2)N(C)C(=O)C2(CCCC2)NC(=O)[C@@H]2CCCN2C(=O)[C@H](CCc2ccc(C(F)(F)F)c(Cl)c2)NC(=O)[C@H](C)N(C)C(=O)[C@H](CC2CCCCC2)N(C)C(=O)CN(C)C(=O)CN(C)C1=O [Compound 722] ([NMeL]I[Sar][Sar][NMeCha][NMeA][hPhe(3-Cl-4-CF3)]P[Ac5c][NMeChg][NMeD]-Piperidide; lactam N-11) was run?
Answer: < 6.30

Question: With CC[C@H](C)[C@@H]1NC(=O)[C@H](CC(C)C)N(C)C(=O)C[C@@H](C)NC(=O)[C@H](C(C)C)N(C)C(=O)C2(CCCC2)NC(=O)[C@@H]2CCCN2C(=O)[C@H](CCc2ccc(C(F)(F)F)c(Cl)c2)NC(=O)CN(C)C(=O)[C@H](Cc2cccc(C#N)c2)N(C)C(=O)CN(C)C(=O)CN(C)C1=O [Compound 975] (cyclo([Ac5c][NMeV][d(β3hA)][NMeL]I[Sar][Sar][NMePhe(3-CN)][Sar][hPhe(3-Cl-4-CF3)]P)) as the molecule, how does the pIC50 read?
Answer: < 6.30

Question: With CC[C@H](C)[C@@H]1NC(=O)[C@H](CC(C)C)N(C)C(=O)C[C@@H](C(=O)N2CCCCC2)N(C)C(=O)[C@H](C2CCCCC2)N(C)C(=O)C2(CCCC2)NC(=O)[C@@H]2C[C@@H]3CCCC[C@@H]3N2C(=O)[C@H](CCc2ccc(C(F)(F)F)c(Cl)c2)NC(=O)CN(C)C(=O)[C@H](CC2CCCCC2)N(C)C(=O)CN(C)C(=O)CN(C)C1=O [Compound 297] ([NMeL]I[Sar][Sar][NMeCha][Sar][hPhe(3-Cl-4-CF3)][Oic][Ac5c][NMeChg][NMeD]-Piperidide; lactam N-11) as the molecule, how does the pIC50 read?
Answer: < 6.30

Question: CC[C@H](C)[C@@H]1NC(=O)[C@H](C)N(C)C(=O)C[C@@H](C(=O)N2CCCCC2)N(C)C(=O)[C@H](C(C)C)N(C)C(=O)C2(CCCC2)NC(=O)[C@@H]2CCCN2C(=O)[C@H](CCc2ccc(C(F)(F)F)c(Cl)c2)NC(=O)CN(C)C(=O)[C@H](CC2CCCCC2)N(C)C(=O)[C@@H]2CCN2C(=O)[C@H](CC2CCCCC2)N(C)C1=O [Compound 1580] ([NMeA]I[NMeCha][Aze][NMeCha][Sar][hPhe(3-Cl-4-CF3)]P[Ac5c][NMeV][NMeD]-Piperidide; lactam N-11) was tested. Which pIC50 did it give?
Answer: < 6.30

Question: CCCOC[C@H]1C(=O)N(C)CC(=O)N[C@@H](CCc2ccc(C(F)(F)F)c(F)c2)C(=O)N2CCC[C@H]2C(=O)NC2(CCCC2)C(=O)N(C)[C@@H](C2CCCC2)C(=O)N(C)[C@H](C(=O)N2CCOCC2)CC(=O)N(C)[C@@H](CC(C)C)C(=O)N[C@@H]([C@@H](C)CC)C(=O)N(C)[C@@H](C)C(=O)N2CC[C@H]2C(=O)N1C [Compound 9] ([NMeL]I[NMeA][Aze][NMeS](Propyl)[Sar][hPhe(3-F,4-CF3)]P[Ac5c][NMeGly(cPent)][NMeD]-Morpholide; lactam N-11) was tested. Which pIC50 did it give?
Answer: ≥ 7.70

Question: CC[C@H](C)[C@@H]1NC(=O)[C@H](C2CCC2)N(C)C(=O)C[C@@H](C(=O)N2CCCC2)N(C)C(=O)[C@H](C2CCCCC2)N(C)C(=O)C2(CCCC2)NC(=O)[C@@H]2CC(F)(F)CN2C(=O)[C@H](CCc2ccc(C(F)(F)F)c(Cl)c2)NC(=O)CN(C)C(=O)[C@H](CC2CCCCC2)N(C)C(=O)CN(C)C(=O)CN(C)C1=O [Compound 1363] ([NMeGly(cBu)]I[Sar][Sar][NMeCha][Sar][hPhe(3-Cl-4-CF3)][Pro(4,4-F2)][Ac5c][NMeChg][NMeD]-Pyrrolidide; lactam N-11) was tested. Which pIC50 did it give?
Answer: ≥ 7.70

Question: CC[C@H](C)[C@@H]1NC(=O)[C@H](CC(C)C)N(C)C(=O)C[C@@H](C(=O)N2CCCCC2)N(C)C(=O)[C@H](C(C)C)N(C)C(=O)C2(CCCC2)NC(=O)[C@@H]2CCCN2C(=O)[C@H](CCc2ccc(C(F)(F)F)c(Cl)c2)NC(=O)CN(C)C(=O)[C@H](Cc2cccc(C#N)c2)N(C)C(=O)CN(C)C(=O)CN(C)C1=O [Compound 710] ([NMeL]I[Sar][Sar][NMePhe(3-CN)][Sar][hPhe(3-Cl-4-CF3)]P[Ac5c][NMeV][NMeD]-Piperidide; lactam N-11) was tested. Which pIC50 did it give?
Answer: < 6.30

Question: With CC[C@H](C)[C@@H]1NC(=O)[C@H](CC(C)C)N(C)C(=O)C[C@@H](C(=O)N2CCCCC2)N(C)C(=O)[C@H](C2CCCCC2)N(C)C(=O)C2(CCCC2)NC(=O)[C@H](Cc2ccncc2)N(C)C(=O)[C@H](CCc2ccc(C(F)(F)F)c(Cl)c2)NC(=O)CN(C)C(=O)[C@H](CC2CCCCC2)N(C)C(=O)[C@@H]2CCN2C(=O)[C@H](C)N(C)C1=O [Compound 656] ([NMeL]I[NMeA][Aze][NMeCha][Sar][hPhe(3-Cl-4-CF3)][NMe4Pal][Ac5c][NMeChg][NMeD]-Piperidide; lactam N-11) as the molecule, how does the pIC50 read?
Answer: < 6.30

Question: How did the pIC50 turn out when CCO[C@@H]1C[C@H]2C(=O)NC3(CCCC3)C(=O)N(C)[C@@H](C3CCCCC3)C(=O)N(C)[C@H](C(=O)N3CCCC3)CC(=O)N(C)[C@@H](CC(F)(F)F)C(=O)N[C@@H]([C@@H](C)CC)C(=O)N(C)CC(=O)N(C)CC(=O)N(C)[C@@H](Cc3ccc(C(F)(F)F)cc3)C(=O)N(C)CC(=O)N[C@@H](CCc3ccc(C(F)(F)F)c(Cl)c3)C(=O)N2C1 [Compound 1139] ([NMeAbu(4,4,4-F3)]I[Sar][Sar][NMePhe(4-CF3)][Sar][hPhe(3-Cl-4-CF3)][Hyp](Et)[Ac5c][NMeChg][NMeD]-Pyrrolidide; lactam N-11) was run?
Answer: ≥ 7.70

Question: CC[C@H](C)[C@@H]1NC(=O)[C@H](CC(C)C)N(C)C(=O)C[C@@H](C)NC(=O)[C@H](C(C)C)N(C)C(=O)C2(CCCC2)NC(=O)[C@@H]2CCCN2C(=O)[C@H](CCc2ccc(C(F)(F)F)c(Cl)c2)NC(=O)CN(C)C(=O)[C@H](Cc2cccc(C)c2)N(C)C(=O)CN(C)C(=O)CN(C)C1=O [Compound 1547] (cyclo([Ac5c][NMeV][d(β3hA)][NMeL]I[Sar][Sar][NMePhe(3-Me)][Sar][hPhe(3-Cl-4-CF3)]P)) was tested. Which pIC50 did it give?
Answer: < 6.30

Question: How did the pIC50 turn out when CCCN1CC(=O)N(C)CC(=O)N(C)[C@@H](CC2CCCCC2)C(=O)N(C)CC(=O)N[C@@H](CCc2ccc(C(F)(F)F)c(Cl)c2)C(=O)N2CCC[C@H]2C(=O)NC2(CCCC2)C(=O)N(C)[C@@H](C(C)C)C(=O)N[C@H](C)CC(=O)N(C)[C@@H](CC(C)C)C(=O)N[C@@H]([C@@H](C)CC)C1=O [Compound 116] (cyclo([Ac5c][NMeV][d(β3hA)][NMeL]I[NPrGly][Sar][NMeCha][Sar][hPhe(3-Cl-4-CF3)]P)) was run?
Answer: < 6.30

Question: With C#CC[C@@H]1NC(=O)[C@H](Cc2cccc(I)c2)NC(=O)CN(C)C(=O)[C@H](Cc2ccc(C(F)(F)F)cc2)N(C)C(=O)[C@@H]2CCN2C(=O)[C@H](C)N(C)C(=O)[C@H]([C@@H](C)CC)NC(=O)[C@H](CC(C)C)N(C)C(=O)C[C@@H](C(=O)N2CCCCC2)N(C)C(=O)[C@H](CC(C)C)NC(=O)C(C)(C)N(C)C1=O [Compound 1258] ([NMeL]I[NMeA][Aze][NMePhe(4-CF3)][Sar][Phe(3-I)][Pra][NMeAib]L[NMeD]-Piperidide; lactam N-11) as the molecule, how does the pIC50 read?
Answer: < 6.30

Question: CC[C@H](C)[C@@H]1NC(=O)[C@H](CC(C)C)N(C)C(=O)C[C@@H](C(=O)N2CCCCC2)N(C)C(=O)[C@H](C2CCCCC2)N(C)C(=O)C2(CCCC2)NC(=O)[C@@H]2CCCN2C(=O)[C@H](CCc2ccc(C(F)(F)F)c(Cl)c2)NC(=O)CN(C)C(=O)[C@H](CO)N(C)C(=O)CN(C)C(=O)CN(C)C1=O [Compound 1687] ([NMeL]I[Sar][Sar][NMeS][Sar][hPhe(3-Cl-4-CF3)]P[Ac5c][NMeChg][NMeD]-Piperidide; lactam N-11) was tested. Which pIC50 did it give?
Answer: < 6.30
